Laboratory results: patent US12552775B2, “Compounds and uses thereof” (Foghorn Therapeutics Inc., priority 2020, dated 2026)

Tests used:
HiBit-BRM fusion protein = target: T1, HiBit-BRM fusion protein (Homo sapiens, UniProt P51531); assay: HiBiT-BRM cell-based degradation assay (Nano-Glo HiBiT Lytic Detection, 24 h); settings: stable HeLa cell line expressing HiBiT-BRM, top dose 30 μM
T1 construct: expressed in transfected cells
Summary of the method: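 HeLa stably expressing HiBiT-BRM; 24 h compound exposure, 10-pt 3-fold dilution from 30 μM final, duplicates. Lytic LgBiT complementation, luminescence. % degradation vs DMSO (HC) and 2 μM known BRM/BRG1 degrader (LC).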

[1] = target: T2, HiBit-BRG1 fusion protein (Homo sapiens, UniProt P51532); assay: HiBiT-BRG1 cell-based degradation assay (Nano-Glo HiBiT Lytic Detection, 24 h); settings: stable HeLa cell line expressing HiBit-BRG1 and LgBit, top dose 30 μM, read-out: BRG1 HiBit Degradation Maximum (%)
T2 construct: expressed in transfected cells
Summary of the method: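 HeLa cells stably expressing HiBiT-BRG1 plus LgBiT were treated with 10-point 3-fold compound dilutions (top 30 μM final) for 24 h. Lytic Nano-Glo HiBiT luminescence was read. % degradation was normalised between DMSO (high control) and 2 μM of a reference BRM/BRG1 degrader (low control).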

T2 sequence (P51532 whole entry, the tested form may be a part): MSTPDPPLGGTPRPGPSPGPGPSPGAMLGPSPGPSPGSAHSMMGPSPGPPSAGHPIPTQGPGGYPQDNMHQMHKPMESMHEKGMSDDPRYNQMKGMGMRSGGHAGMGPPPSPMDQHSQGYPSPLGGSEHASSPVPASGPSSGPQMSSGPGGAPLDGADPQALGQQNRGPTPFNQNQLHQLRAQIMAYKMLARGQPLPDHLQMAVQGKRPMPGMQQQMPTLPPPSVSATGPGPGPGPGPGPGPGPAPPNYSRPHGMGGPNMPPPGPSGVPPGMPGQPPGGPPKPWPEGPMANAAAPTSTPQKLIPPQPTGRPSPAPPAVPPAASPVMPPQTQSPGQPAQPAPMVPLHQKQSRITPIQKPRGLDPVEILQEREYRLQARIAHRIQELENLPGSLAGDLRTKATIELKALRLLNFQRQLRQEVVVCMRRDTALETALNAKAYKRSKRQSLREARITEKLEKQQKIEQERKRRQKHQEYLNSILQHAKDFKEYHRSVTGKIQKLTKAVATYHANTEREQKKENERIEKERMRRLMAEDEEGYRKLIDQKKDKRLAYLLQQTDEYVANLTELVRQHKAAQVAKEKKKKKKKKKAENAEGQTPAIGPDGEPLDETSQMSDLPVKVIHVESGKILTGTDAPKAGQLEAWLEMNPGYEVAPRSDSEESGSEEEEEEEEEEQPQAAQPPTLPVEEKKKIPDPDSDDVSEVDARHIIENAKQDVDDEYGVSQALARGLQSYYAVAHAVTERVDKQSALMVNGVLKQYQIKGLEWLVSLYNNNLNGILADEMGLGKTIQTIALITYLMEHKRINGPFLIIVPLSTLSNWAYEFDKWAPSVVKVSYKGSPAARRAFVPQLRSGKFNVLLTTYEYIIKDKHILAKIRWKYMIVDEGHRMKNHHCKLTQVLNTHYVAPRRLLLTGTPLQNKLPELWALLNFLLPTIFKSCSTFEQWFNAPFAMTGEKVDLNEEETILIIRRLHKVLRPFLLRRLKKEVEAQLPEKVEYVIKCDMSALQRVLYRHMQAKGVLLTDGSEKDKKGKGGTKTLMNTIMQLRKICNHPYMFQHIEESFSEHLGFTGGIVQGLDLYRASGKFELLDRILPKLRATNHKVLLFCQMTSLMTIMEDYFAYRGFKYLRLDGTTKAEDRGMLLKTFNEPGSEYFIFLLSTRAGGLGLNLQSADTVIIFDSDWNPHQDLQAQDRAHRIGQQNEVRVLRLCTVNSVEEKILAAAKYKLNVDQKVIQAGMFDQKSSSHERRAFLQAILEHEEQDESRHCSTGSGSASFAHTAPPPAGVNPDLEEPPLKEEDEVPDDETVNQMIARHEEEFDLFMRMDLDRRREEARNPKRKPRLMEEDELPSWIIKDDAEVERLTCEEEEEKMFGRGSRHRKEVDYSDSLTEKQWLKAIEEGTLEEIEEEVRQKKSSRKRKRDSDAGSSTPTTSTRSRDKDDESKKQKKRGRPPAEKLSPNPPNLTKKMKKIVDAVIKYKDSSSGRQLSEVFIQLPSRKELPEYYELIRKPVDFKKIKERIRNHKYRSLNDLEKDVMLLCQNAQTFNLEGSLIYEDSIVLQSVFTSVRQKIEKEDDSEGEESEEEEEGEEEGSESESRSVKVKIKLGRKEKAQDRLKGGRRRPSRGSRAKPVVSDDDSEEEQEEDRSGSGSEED
T1 sequence (P51531 whole entry, the tested form may be a part): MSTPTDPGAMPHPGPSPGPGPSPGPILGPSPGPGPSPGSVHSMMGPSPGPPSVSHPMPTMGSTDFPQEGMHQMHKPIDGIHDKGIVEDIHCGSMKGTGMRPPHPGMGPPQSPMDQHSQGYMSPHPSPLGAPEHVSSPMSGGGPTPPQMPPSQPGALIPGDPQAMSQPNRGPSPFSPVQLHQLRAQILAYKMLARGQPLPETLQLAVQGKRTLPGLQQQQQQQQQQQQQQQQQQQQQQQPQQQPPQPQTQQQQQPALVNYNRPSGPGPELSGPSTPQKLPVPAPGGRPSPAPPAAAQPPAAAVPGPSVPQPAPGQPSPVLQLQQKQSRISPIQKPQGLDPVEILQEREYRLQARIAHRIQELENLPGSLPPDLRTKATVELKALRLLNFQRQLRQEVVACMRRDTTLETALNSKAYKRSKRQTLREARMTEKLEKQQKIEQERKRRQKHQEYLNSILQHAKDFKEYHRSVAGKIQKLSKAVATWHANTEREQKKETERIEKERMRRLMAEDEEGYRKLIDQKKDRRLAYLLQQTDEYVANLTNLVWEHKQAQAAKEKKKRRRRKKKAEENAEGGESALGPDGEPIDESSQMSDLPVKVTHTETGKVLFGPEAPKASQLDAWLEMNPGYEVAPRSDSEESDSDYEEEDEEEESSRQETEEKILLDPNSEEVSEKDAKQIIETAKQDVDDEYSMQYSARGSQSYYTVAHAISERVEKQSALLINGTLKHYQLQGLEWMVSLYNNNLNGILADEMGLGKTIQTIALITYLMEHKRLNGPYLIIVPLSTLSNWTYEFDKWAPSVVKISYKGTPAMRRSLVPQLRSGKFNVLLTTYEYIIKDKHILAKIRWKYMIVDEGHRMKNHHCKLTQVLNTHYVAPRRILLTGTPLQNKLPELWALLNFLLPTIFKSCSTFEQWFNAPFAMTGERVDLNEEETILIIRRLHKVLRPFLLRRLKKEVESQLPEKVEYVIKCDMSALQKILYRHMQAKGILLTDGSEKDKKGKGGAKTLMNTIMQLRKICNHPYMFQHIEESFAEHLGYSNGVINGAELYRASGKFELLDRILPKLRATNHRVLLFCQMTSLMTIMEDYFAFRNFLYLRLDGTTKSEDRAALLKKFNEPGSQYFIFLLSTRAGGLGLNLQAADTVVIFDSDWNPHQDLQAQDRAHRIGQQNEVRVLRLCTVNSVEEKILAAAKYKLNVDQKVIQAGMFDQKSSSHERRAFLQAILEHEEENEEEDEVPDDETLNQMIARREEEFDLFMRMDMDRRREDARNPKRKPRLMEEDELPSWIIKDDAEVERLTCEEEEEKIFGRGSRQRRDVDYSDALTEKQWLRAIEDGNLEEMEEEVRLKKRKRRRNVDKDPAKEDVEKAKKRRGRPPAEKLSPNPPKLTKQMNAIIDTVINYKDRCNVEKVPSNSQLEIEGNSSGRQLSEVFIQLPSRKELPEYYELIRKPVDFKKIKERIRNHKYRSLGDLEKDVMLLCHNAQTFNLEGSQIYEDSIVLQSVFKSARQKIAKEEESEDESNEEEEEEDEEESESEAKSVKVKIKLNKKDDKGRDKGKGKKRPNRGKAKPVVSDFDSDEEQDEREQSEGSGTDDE

| Compound | Dmax [1] | BRM HiBit Degradation Maximum (%) (HiBit-BRM fusion protein) |
| --- | --- | --- |
| Cc1ncsc1-c1ccc(CNC(=O)[C@@H]2C[C@@H](O)CN2C(=O)[C@@H](NC(=O)CCCCCCCC(=O)NC23CC(CCOc4cc(-c5ccccc5O)nnc4N)(C2)C3)C(C)(C)C)cc1 [Compound 44, N1-(3-(2-((3-amino-6-(2-hydroxyphenyl)pyridazin-4-yl)oxy)ethyl)bicyclo[1.1.1]pentan-1-yl)-N9-((S)-1-((2S,4R)-4-hydroxy-2-((4-(4-methylthiazol-5-yl)benzyl)carbamoyl)pyrrolidin-1-yl)-3,3-dimethyl-1-oxobutan-2-yl)nonanediamide] | < 50% | B (“B” indicates maximum degradation ≥ 50%) |
| Nc1nnc(-c2ccccc2O)cc1OCC12CC(C(=O)N3CCC(CCN4CCN(c5ccc6c(c5)C(=O)N(C5CCC(=O)NC5=O)C6=O)CC4)CC3)(C1)C2 (centres unmarked) [Compound 94, 5-(4-(2-(1-(3-(((3-amino-6-(2-hydroxyphenyl)pyridazin-4-yl)oxy)methyl)bicyclo[1.1.1]pentane-1-carbonyl)piperidin-4-yl)ethyl)piperazin-1-yl)-2-(2,6-dioxopiperidin-3-yl)isoindoline-1,3-dione] | < 50% | B (“B” indicates maximum degradation ≥ 50%) |
| Cc1ncsc1-c1ccc(CNC(=O)[C@@H]2C[C@@H](O)CN2C(=O)[C@@H](NC(=O)COCCOCCOCCOCC(=O)NCC23CC(COc4cc(-c5ccccc5O)nnc4N)(C2)C3)C(C)(C)C)cc1 [Compound 36, N1-((3-(((3-amino-6-(2-hydroxyphenyl)pyridazin-4-yl)oxy)methyl)bicyclo[1.1.1]pentan-1-yl)methyl)-N14-((S)-1-((2S,4R)-4-hydroxy-2-((4-(4-methylthiazol-5-yl)benzyl)carbamoyl)pyrrolidin-1-yl)-3,3-dimethyl-1-oxobutan-2-yl)-3,6,9,12-tetraoxatetradecanediamide] | < 50% | C (“C” indicates maximum degradation < 50%) |
| Nc1nnc(-c2ccccc2O)cc1OCC12CC(C(=O)N3CCC(CN4CCN(c5ccc6c(c5)C(=O)N(C5CCC(=O)NC5=O)C6=O)CC4)CC3)(C1)C2 (centres unmarked) [Compound 101, 5-(4-((1-(3-(((3-amino-6-(2-hydroxyphenyl)pyridazin-4-yl)oxy)methyl)bicyclo[1.1.1]pentane-1-carbonyl)piperidin-4-yl)methyl)piperazin-1-yl)-2-(2,6-dioxopiperidin-3-yl)isoindoline-1,3-dione] | < 50% | B (“B” indicates maximum degradation ≥ 50%) |
| CN(CCNC(=O)C12CC(COc3cc(-c4ccccc4O)nnc3N)(C1)C2)CCNc1cccc2c1C(=O)N(C1CCC(=O)NC1=O)C2=O (centres unmarked) [Compound 77, 3-(((3-amino-6-(2-hydroxyphenyl)pyridazin-4-yl)oxy)methyl)-N-(2-((2-((2-(2,6-dioxopiperidin-3-yl)-1,3-dioxoisoindolin-4-yl)amino)ethyl)(methyl)amino)ethyl)bicyclo[1.1.1]pentane-1-carboxamide] | < 50% | C (“C” indicates maximum degradation < 50%) |

Now from value to molecule, other results behind:

| Dmax [1] | Compound | BRM HiBit Degradation Maximum (%) (HiBit-BRM fusion protein) |
| --- | --- | --- |
| < 50% | Nc1nnc(-c2ccccc2O)cc1OCCC12CC(NC(=O)CCCCCCCCCCNc3ccc4c(c3)C(=O)N(C3CCC(=O)NC3=O)C4=O)(C1)C2 (centres unmarked) [Compound 26, N-[3-(2-[[3-amino-6-(2-hydroxyphenyl)pyridazin-4-yl]oxy]ethyl)bicyclo[1.1.1]pentan-1-yl]-11-[[2-(2,6-dioxopiperidin-3-yl)-1,3-dioxoisoindol-5-yl]amino]undecanamide] | C (“C” indicates maximum degradation < 50%) |
| < 50% | Nc1nnc(-c2ccccc2O)cc1OCC12CC(C(=O)NCCCCCNc3ccc4c(c3)C(=O)N(C3CCC(=O)NC3=O)C4=O)(C1)C2 (centres unmarked) [Compound 63, 3-(((3-amino-6-(2-hydroxyphenyl)pyridazin-4-yl)oxy)methyl)-N-(5-((2-(2,6-dioxopiperidin-3-yl)-1,3-dioxoisoindolin-5-yl)amino)pentyl)bicyclo[1.1.1]pentane-1-carboxamide; formic acid] | C (“C” indicates maximum degradation < 50%) |
